Reference: BindingDB's records for doi:10.1016/s0960-894x(01)00543-1 (Harvard Medical School, 2001)

Assay: Binding affinity towards Opioid receptor delta 1 in guinea pig brain membranes using [3H]naltrindole as radioligand

SMILES | Ki [nM]
Oc1ccc2c(c1)C[C@@H]1[C@@H]3CCCC[C@]23CCN1C/C=C/I | 27
Oc1ccc2c(c1)C[C@@H]1[C@@H]3CCCCC23CCN1CCC(O)c1ccco1 (stereo partly drawn) [1-(2-furyl)-3-[5-hydroxy-(1R,9R,10R)-17-azatetracyclo[7.5.3.01,10.02,7]heptadeca-2(7),3,5-trien-17-yl]-1-propanol] | 29
O=C(CCN1CCC23CCCC[C@H]2[C@H]1Cc1cc(O)ccc13)c1ccco1 [1-(2-furyl)-3-[5-hydroxy-(1R,9R,10R)-17-azatetracyclo[7.5.3.01,10.02,7]heptadeca-2(7),3,5-trien-17-yl]-1-propanone] | 42
N#CCCN1CCC23CCCC[C@H]2[C@H]1Cc1cc(O)ccc13 [2-[5-hydroxy-(1R,9R,10R)-17-azatetracyclo[7.5.3.01,10.02,7]heptadeca-2(7),3,5-trien-17-yl]ethyl cyanide] | 2.6
O=C(CCN1CCC23CCCC[C@H]2[C@H]1Cc1cc(O)ccc13)c1cccs1 [3-[5-hydroxy-(1R,9R,10R)-17-azatetracyclo[7.5.3.01,10.02,7]heptadeca-2(7),3,5-trien-17-yl]-1-(2-thienyl)-1-propanone] | 10
O=C(CCN1CCC23CCCC[C@H]2[C@H]1Cc1cc(O)ccc13)c1ccccc1 [3-[5-hydroxy-(1R,9R,10R)-17-azatetracyclo[7.5.3.01,10.02,7]heptadeca-2(7),3,5-trien-17-yl]-1-phenyl-1-propanone] | 23
N#CCCCN1CCC23CCCC[C@H]2[C@H]1Cc1cc(O)ccc13 [3-[5-hydroxy-(1R,9R,10R)-17-azatetracyclo[7.5.3.01,10.02,7]heptadeca-2(7),3,5-trien-17-yl]propyl cyanide] | 3.1
CCOCCN1CCC23CCCC[C@H]2[C@H]1Cc1cc(O)ccc13 [17-(2-ethoxyethyl)-(1R,9R,10R)-17-azatetracyclo[7.5.3.01,10.02,7]heptadeca-2(7),3,5-trien-5-ol] | 5.6
Oc1ccc2c(c1)C[C@@H]1[C@@H]3CCCCC23CCN1CCC(F)(F)F [17-(3,3,3-trifluoropropyl)-(1R,9R,10R)-17-azatetracyclo[7.5.3.01,10.02,7]heptadeca-2(7),3,5-trien-5-ol] | 27
Oc1ccc2c(c1)C[C@@H]1[C@@H]3CCCCC23CCN1CCCF [17-(3-fluoropropyl)-(1R,9R,10R)-17-azatetracyclo[7.5.3.01,10.02,7]heptadeca-2(7),3,5-trien-5-ol] | 0.85
Oc1ccc2c(c1)C[C@@H]1[C@@H]3CCCCC23CCN1CC1CCCCC1 [17-(N-cyclohexylmethyl)-(1R,9R,10R)-17-azatetracyclo[7.5.3.01,10.02,7]heptadeca-2(7),3,5-trien-5-ol] | 69
C=CCN1CCC23CCCC[C@H]2[C@H]1Cc1cc(O)ccc13 [17-allyl-(1R,9R,10R)-17-azatetracyclo[7.5.3.01,10.02,7]heptadeca-2(7),3,5-trien-5-ol] | 4.1
Oc1ccc2c(c1)C[C@@H]1[C@@H]3CCCCC23CCN1Cc1ccccc1 [17-benzyl-(1R,9R,10R)-17-azatetracyclo[7.5.3.01,10.02,7]heptadeca-2(7),3,5-trien-5-ol] | 420
Oc1ccc2c(c1)C[C@@H]1[C@@H]3CCCCC23CCN1CC1CCCC1 [17-cyclopentylmethyl-17-azatetracyclo[7.5.3.01,10.02,7]heptadeca-2(7),3,5-trien-5-ol] | 6.9
Oc1ccc2c(c1)C[C@@H]1[C@@H]3CCCCC23CCN1CCc1ccccc1 [17-phenethyl-(1R,9R,10R)-17-azatetracyclo[7.5.3.01,10.02,7]heptadeca-2(7),3,5-trien-5-ol] | 3.1
CC(C)CN1CCC23CCCC[C@H]2[C@H]1Cc1cc(O)ccc13 [MCL-108] | 5.6
COCCN1CCC23CCCC[C@H]2[C@H]1Cc1cc(O)ccc13 [MCL-110] | 0.54
Oc1ccc2c(c1)C[C@@H]1[C@@H]3CCCCC23CCN1Cc1ccco1 [MCL-119] | 8.5
Oc1ccc2c(c1)C[C@@H]1[C@@H]3CCCCC23CCN1CCC(O)c1ccccc1 (stereo partly specified) [MCL-121] | 130
Oc1ccc2c(c1)C[C@@H]1[C@@H]3CCCCC23CCN1CCC(O)c1cccs1 (stereo partly specified) [MCL-122] | 110
Oc1ccc2c(c1)C[C@@H]1[C@@H]3CCCCC23CCN1CCOc1ccccc1 [MCL-127] | 33
